Laboratory results from patent publication US12637459B2, “Solid state forms of Lorecivivint” (TAPI CZECH INDUSTRIES S.R.O., priority 2020, dated 2026).

Tests used:
[1] = Hygroscopicity of the crystalline form; assay type: physicochemical; conditions: solid state form
[2] = Polymorphic stability at up to 100% relative humidity at room temperature; assay type: physicochemical

Q: With `CC(C)CC(=O)Nc1cncc(-c2ccc3[nH]nc(-c4nc5c(-c6cccc(F)c6)cncc5[nH]4)c3c2)c1` [Form Q, N-[5-[3-[7-(3-fluorophenyl)-3H-imidazo[4,5-c]pyridin-2-yl]-1H-indazol-5-yl]pyridin-3-yl]-3-methylbutanamide] as the compound, how does the hygroscopicity [1] read?
A: Its hygroscopicity is “non-hygroscopic”.

Q: What about the time polymorphically stable [2] of the same compound?
A: Its time polymorphically stable is “at least 7 days”.
